Where a name gives a salt, the structure may show the parent alone.
System: Acinetobacter baumannii ATCC17961
Assay: 90% growth inhibitory concentration (IC90) determination, antimicrobial susceptibility testing
Format: cell-based
Conditions: 90% growth inhibition, Iso-Sensitest broth, OD 600 nm over 16 h, 35±2° C.; read-out: ATCC 17961 IC90
Method in brief: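 Twofold serial dilutions (e.g. 50 to 0.097 μM final) in Iso-Sensitest broth, inoculated at ~5×10^5 CFU/ml and incubated at 35±2 °C for 16 h with OD600 read every minute. IC90 taken from growth inhibition during the logarithmic phase.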

Work on “Methyl 2-[1-[1-(azetidin-3-ylmethyl)-1-methyl-piperidin-1-ium-4-carbonyl]-4-piperidyl]-2-[[4-[[3-(2,3-difluoro-4-methoxy-phenyl)imidazo[1,2-a]pyrazin-8-yl]amino]-2-ethyl-benzoyl]amino]acetate formate 2,2,2-trifluoroacetate (Mixed Salt) [Example 125]” yielded an IC90 of 1550 nM.

Same assay, conditions: Acinetobacter baumannii, ATCC17961, 16 h, 90% growth inhibition, Iso-Sensitest broth, OD 600 nm over 16 h, 35±2° C.; read-out: ATCC 17961 IC90

Point of comparison: `COc1ccc(-c2cnc3c(Nc4ccc(C(=O)N[C@@H]5CCN(C(=O)C[N+](C)(C)C)C5)c(C)c4)nccn23)c(F)c1F` [Example 70, (R)-2-(3-(4-((3-(2,3-difluoro-4-methoxyphenyl)imidazo[1,2-a]pyrazin-8-yl)amino)-2-methylbenzamido)pyrrolidin-1-yl)-N,N,N-trimethyl-2-oxoethan-1-aminium Chloride], IC90 44.5 nM. Against it:
- CCc1cc(Nc2nccn3c(-c4ccc(OC)c(F)c4F)cnc23)ccc1C(=O)NC[C@H](NC(=O)C1CC[N+](C)(CC2CNC2)CC1)C(=O)OC (mixture of isomers) [Example 120, Methyl (2S)-2-[[1-(azetidin-3-ylmethyl)-1-methyl-piperidin-1-ium-4-carbonyl]amino]-3-[[4-[[3-(2,3-difluoro-4-methoxy-phenyl)imidazo[1,2-a]pyrazin-8-yl]amino]-2-ethyl-benzoyl]amino]propanoate formate 2,2,2-trifluoroacetate (Mixed Salt)] — 15-fold higher, 682 nM
- CCc1cc(Nc2nccn3c(-c4cn(CC#N)nc4C(F)(F)F)cnc23)ccc1C(=O)NCCCCC[N+](C)(C)CC(=O)O [Example 110, Carboxymethyl-[5-[[4-[[3-[1-(cyanomethyl)-3-(trifluoromethyl)pyrazol-4-yl]imidazo[1,2-a]pyrazin-8-yl]amino]-2-ethyl-benzoyl]amino]pentyl]-dimethyl-ammonium Formate] — 97-fold higher, 4300 nM
- CCc1cc(Nc2nccn3c(-c4ccc(Oc5ncccn5)c(F)c4F)cnc23)ccc1C(=O)NCCCNC(=O)C1CC[N+](C)(CC2CCNC2)CC1 (stereo not shown) [Example 3, N-[3-[[4-[[3-(2,3-difluoro-4-pyrimidin-2-yloxy-phenyl)imidazo[1,2-a]pyrazin-8-yl]amino]-2-ethyl-benzoyl]amino]propyl]-1-methyl-1-(pyrrolidin-3-ylmethyl)piperidin-1-ium-4-carboxamide Formate] — 11-fold higher, 484 nM
- CCc1cc(Nc2nccn3c(-c4ccc(OC)c(F)c4F)cnc23)ccc1C(=O)NCCOCC[N+](C)(C)CC#N [Example 74, N-(Cyanomethyl)-2-(2-(4-((3-(2,3-difluoro-4-methoxyphenyl)imidazo[1,2-a]pyrazin-8-yl)amino)-2-ethylbenzamido)ethoxy)-N,N-dimethylethan-1-aminium Formate] — within 1.5-fold, 31 nM
- CCc1cc(Nc2nccn3c(-c4ccc(OC(F)F)c(F)c4F)cnc23)ccc1C(=O)N1CCN(C(=O)C2CC[N+](C)(CCNC)CC2)CC1 (stereo not shown) [Example 85, [4-[[3-[4-(difluoromethoxy)-2,3-difluoro-phenyl]imidazo[1,2-a]pyrazin-8-yl]amino]-2-ethyl-phenyl]-[4-[1-methyl-1-[2-(methylamino)ethyl]piperidin-1-ium-4-carbonyl]piperazin-1-yl]methanone bis(2,2,2-trifluoroacetate)] — 3.3-fold higher, 147 nM
- CCc1cc(Nc2nccn3c(-c4ccc(OC)c(F)c4F)cnc23)ccc1C(=O)NCCCNC(=O)C[C@@H]1CC[N+](C)(CC2CNC2)C1 (stereo partly drawn) [Example 130, N-[3-[[2-[(3S)-1-(Azetidin-3-ylmethyl)-1-methyl-pyrrolidin-1-ium-3-yl]acetyl]amino]propyl]-4-[[3-(2,3-difluoro-4-methoxy-phenyl)imidazo[1,2-a]pyrazin-8-yl]amino]-2-ethyl-benzamide bis(2,2,2-trifluoroacetate)] — 2.4-fold higher, 108 nM
- CCc1cc(Nc2nccn3c(-c4ccc(OC(F)F)c(F)c4F)cnc23)ccc1C(=O)N1CC[N+](C)(CC2CCNC2)CC1 (stereo not shown) [Example 119, [4-[[3-[4-(Difluoromethoxy)-2,3-difluoro-phenyl]imidazo[1,2-a]pyrazin-8-yl]amino]-2-ethyl-phenyl]-[4-methyl-4-(pyrrolidin-3-ylmethyl)piperazin-4-ium-1-yl]methanone Formate] — 38-fold higher, 1700 nM
- CCc1cc(Nc2nccn3c(-c4ccc(OC)c(F)c4F)cnc23)ccc1C(=O)NCC1CC[N+](C)(CC2CC[N+](C)(C)C2)CC1 (stereo not shown) [Example 135, 4-[[3-(2,3-Difluoro-4-methoxy-phenyl)imidazo[1,2-a]pyrazin-8-yl]amino]-N-[[1-[(1,1-dimethylpyrrolidin-1-ium-3-yl)methyl]-1-methyl-piperidin-1-ium-4-yl]methyl]-2-ethyl-benzamide Diformate] — 11-fold higher, 479 nM
- CCc1cc(Nc2nccn3c(-c4ccc(OC)c(F)c4F)cnc23)ccc1C(=O)NCC1CC[N+](CC(=O)O)(CC2CNC2)CC1 (stereo not shown) [Example 128, 2-[1-(Azetidin-3-ylmethyl)-4-[[[4-[[3-(2,3-difluoro-4-methoxy-phenyl)imidazo[1,2-a]pyrazin-8-yl]amino]-2-ethyl-benzoyl]amino]methyl]piperidin-1-ium-1-yl]acetic acid bis(2,2,2-trifluoroacetate)] — 7.7-fold higher, 343 nM
- CCc1cc(Nc2nccn3c(-c4ccc(OC(F)F)c(F)c4F)cnc23)ccc1C(=O)NCC1CC[N+](C)(CC2CNC2)C1 (stereo not shown) [Example 88, N-[[1-(azetidin-3-ylmethyl)-1-methyl-pyrrolidin-1-ium-3-yl]methyl]-4-[[3-[4-(difluoromethoxy)-2,3-difluoro-phenyl]imidazo[1,2-a]pyrazin-8-yl]amino]-2-ethyl-benzamide bis(2,2,2-trifluoroacetate)] — 11-fold higher, 485 nM
- CCc1cc(Nc2nccn3c(-c4ccc(OC)c(F)c4F)cnc23)ccc1C(=O)NCCCCC[N+](C)(CC(=O)O)CC(=O)O [Example 112, bis(carboxymethyl)-[5-[[4-[[3-(2,3-difluoro-4-methoxy-phenyl)imidazo[1,2-a]pyrazin-8-yl]amino]-2-ethyl-benzoyl]amino]pentyl]-methyl-ammonium 2,2,2-trifluoroacetate] — 58-fold higher, 2560 nM
- C[N+](C)(C)CC(=O)NCCCNC(=O)c1ccc(Nc2nccn3c(-c4c[nH]nc4C(F)(F)F)cnc23)cc1Cl [Example 7, [2-[3-[[2-Chloro-4-[[3-[3-(trifluoromethyl)-1H-pyrazol-4-yl]imidazo[1,2-a]pyrazin-8-yl]amino]benzoyl]amino]propylamino]-2-oxo-ethyl]-trimethyl-ammonium Formate] — 26-fold higher, 1160 nM
- CCc1cc(Nc2nccn3c(-c4cn(CC(F)F)nc4C(F)(F)F)cnc23)ccc1C(=O)NCCCCC[N+](C)(CC(=O)O)CC1CNC1 (stereo not shown) [Example 8, azetidin-3-ylmethyl-(carboxymethyl)-[5-[[4-[[3-[1-(2,2-difluoroethyl)-3-(trifluoromethyl)pyrazol-4-yl]imidazo[1,2-a]pyrazin-8-yl]amino]-2-ethyl-benzoyl]amino]pentyl]-methyl-ammonium Formate] — 13-fold higher, 600 nM

Same assay, conditions: Acinetobacter baumannii, ATCC17961, 16 h, read-out: ATCC 17961 IC90

For `CCc1cc(Nc2nccn3c(-c4ccc(OC(F)F)c(F)c4F)cnc23)ccc1C(=O)NCCC1C[N+](C)(CC2CNC2)C1` (stereo not shown) [Example 90, N-[2-[1-(azetidin-3-ylmethyl)-1-methyl-azetidin-1-ium-3-yl]ethyl]-4-[[3-[4-(difluoromethoxy)-2,3-difluoro-phenyl]imidazo[1,2-a]pyrazin-8-yl]amino]-2-ethyl-benzamide Diformate], the IC90 was 320 nM.

From patent US20230141600A1, “IMIDAZOPYRAZINE DERIVATIVES” (priority 2020, published 2023)
